In PubChem BioAssay AID2060894 (Molecular Pharmacology Branch, DTP, NCI, 2025):
pIC50: −log10 of the molar value. Blank lines part the entries; values can stand above or below the compound they belong to.

System: K12877-001-R-J1-PDC complex spheroid viability
Assay: Anticancer human tumor K12877-001-R-J1-PDC patient-derived lung adenocarcinoma cell line growth inhibition [RAS]
Conditions: for viability, T/C: stronger effect = lower value
How it was run: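 Agents were tested in combination matrices in half-log decrements from a top concentration at or near clinical Cmax (10 microM if undetermined). Targets were multi-cell spheroids of tumour lines plus HUVEC and MSC stromal cells.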

[1] = curve of first compound, second compound 0.0316 µM
[2] = curve of first compound, second compound 0.1 µM
[3] = curve of first compound, second compound 0.316 µM
[4] = curve of first compound, second compound 1 µM
[5] = curve of first compound, second compound 3.16 µM
[6] = curve of first compound, second compound 10 µM
[7] = second compound 0.0316 µM, first compound 0.0316 µM
[8] = second compound 0.0316 µM, first compound 0.1 µM
[9] = second compound 0.0316 µM, first compound 0.316 µM
[10] = second compound 0.0316 µM, first compound 1 µM
[11] = second compound 0.1 µM, first compound 0.0316 µM
[12] = second compound 0.1 µM, first compound 0.1 µM
[13] = second compound 0.1 µM, first compound 0.316 µM
[14] = second compound 0.1 µM, first compound 1 µM
[15] = second compound 0.316 µM, first compound 0.0316 µM
[16] = second compound 0.316 µM, first compound 0.1 µM
[17] = second compound 0.316 µM, first compound 0.316 µM
[18] = second compound 0.316 µM, first compound 1 µM
[19] = second compound 1 µM, first compound 0.0316 µM
[20] = second compound 1 µM, first compound 0.1 µM
[21] = second compound 1 µM, first compound 0.316 µM
[22] = second compound 1 µM, first compound 1 µM
[23] = second compound 3.16 µM, first compound 0.0316 µM
[24] = second compound 3.16 µM, first compound 0.1 µM
[25] = second compound 3.16 µM, first compound 0.316 µM
[26] = second compound 3.16 µM, first compound 1 µM
[27] = second compound 10 µM, first compound 0.0316 µM
[28] = second compound 10 µM, first compound 0.1 µM
[29] = second compound 10 µM, first compound 0.316 µM
[30] = second compound 10 µM, first compound 1 µM
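Also: spheroids exposed to agents for one week before readout.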
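For viability, T/C in this document: tumour cells co-cultured with HUVEC and mesenchymal stem cells in spheroids.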

Structure (SMILES): C[C@@H](NC(=O)c1ncnc(N)c1Cl)c1ncc(C(=O)Nc2cc(C(F)(F)F)c(Cl)cn2)s1
viability, T/C (compound 0.0316 µM): 110% [middle of 4 runs]
viability, T/C (compound 0.1 µM): 99.7% [middle of 4 runs]
viability, T/C (compound 0.316 µM): 95% [middle of 4 runs]
viability, T/C (compound 1 µM): 103% [middle of 4 runs]
viability, T/C (compound 3.16 µM): 100% [middle of 4 runs]
viability, T/C (compound 10 µM): 95.4% [middle of 4 runs]
pIC50 (curve of compound): < 5.00

Structure (SMILES): CC1(O)CCCC1n1c(=O)c(C(F)F)cc2cnc(NC3CCN(S(C)(=O)=O)CC3)nc21 (stereo not given)
viability, T/C (compound 0.0316 µM): 99.7% [middle of 4 runs]
viability, T/C (compound 10 µM): 3.53% [middle of 4 runs]

Now from value to compound, other results behind:

pIC50 (curve of first compound, second compound 0.000949 µM): 5.21
pIC50 (curve of first compound, second compound 0.003 µM): 5.73
pIC50 (curve of first compound, second compound 0.00949 µM): 5.58
pIC50 (curve of first compound, second compound 0.03 µM): 6.06
pIC50 (curve of first compound, second compound 0.0949 µM): 5.92
pIC50 (curve of first compound, second compound 0.3 µM): 6.37
Structure (SMILES): Cc1nc(N2CCC3(CC2)COC(C)C3N)c(CO)nc1Sc1ccnc(N)c1Cl (stereo not given) + CCn1c(-c2cccnc2C(C)OC)c2c3cc(ccc31)N1CCOC(CC(NC(=O)C(C(C)C)N(C)C(=O)C3(F)CCN(C(=O)C#CC(C)(C)N(C)C)CC3)C(=O)N3CCCC(N3)C(=O)OCC(C)(C)C2)C1
viability, T/C (second compound 0.000949 µM, first compound 0.0316 µM): 83.6%
viability, T/C (second compound 0.000949 µM, first compound 0.1 µM): 71.1%
viability, T/C (second compound 0.000949 µM, first compound 0.316 µM): 71.5%
viability, T/C (second compound 0.000949 µM, first compound 1 µM): 62.5%
viability, T/C (second compound 0.000949 µM, first compound 3.16 µM): 52.8%
viability, T/C (second compound 0.000949 µM, first compound 10 µM): 47.3%
viability, T/C (second compound 0.003 µM, first compound 0.0316 µM): 73.6%
viability, T/C (second compound 0.003 µM, first compound 0.1 µM): 66.2%
viability, T/C (second compound 0.003 µM, first compound 0.316 µM): 69.8%
viability, T/C (second compound 0.003 µM, first compound 1 µM): 55.6%
viability, T/C (second compound 0.003 µM, first compound 3.16 µM): 45.6%
viability, T/C (second compound 0.003 µM, first compound 10 µM): 44%
viability, T/C (second compound 0.00949 µM, first compound 0.0316 µM): 76.4%
viability, T/C (second compound 0.00949 µM, first compound 0.1 µM): 76%
viability, T/C (second compound 0.00949 µM, first compound 0.316 µM): 57.8%
viability, T/C (second compound 0.00949 µM, first compound 1 µM): 57.4%
viability, T/C (second compound 0.00949 µM, first compound 3.16 µM): 50.2%
viability, T/C (second compound 0.00949 µM, first compound 10 µM): 42.1%
viability, T/C (second compound 0.03 µM, first compound 0.0316 µM): 83.2%
viability, T/C (second compound 0.03 µM, first compound 0.1 µM): 73.5%
viability, T/C (second compound 0.03 µM, first compound 0.316 µM): 59.2%
viability, T/C (second compound 0.03 µM, first compound 1 µM): 49.4%
viability, T/C (second compound 0.03 µM, first compound 3.16 µM): 40.7%
viability, T/C (second compound 0.03 µM, first compound 10 µM): 36.5%
viability, T/C (second compound 0.0949 µM, first compound 0.0316 µM): 72.6%
viability, T/C (second compound 0.0949 µM, first compound 0.1 µM): 70.8%
viability, T/C (second compound 0.0949 µM, first compound 0.316 µM): 58.3%
viability, T/C (second compound 0.0949 µM, first compound 1 µM): 48.5%
viability, T/C (second compound 0.0949 µM, first compound 3.16 µM): 46.4%
viability, T/C (second compound 0.0949 µM, first compound 10 µM): 33.8%
viability, T/C (second compound 0.3 µM, first compound 0.0316 µM): 57.1%
viability, T/C (second compound 0.3 µM, first compound 0.1 µM): 67.9%
viability, T/C (second compound 0.3 µM, first compound 0.316 µM): 53.3%
viability, T/C (second compound 0.3 µM, first compound 1 µM): 38.3%
viability, T/C (second compound 0.3 µM, first compound 3.16 µM): 37.5%
viability, T/C (second compound 0.3 µM, first compound 10 µM): 31.2%

pIC50 [1]: 7.73
pIC50 [2]: 7.77
pIC50 [3]: 7.75
pIC50 [4]: 7.75
pIC50 [5]: 7.76
pIC50 [6]: 7.79
Structure (SMILES): Nc1ccn(C2OC(CO)C(O)C2(F)F)c(=O)n1 (stereo not given) + C#Cc1c(F)ccc2cc(O)cc(-c3ncc4c(N5CC6CCC(C5)N6)nc(OCC56CCCN5CC(F)C6)nc4c3F)c12
viability, T/C (second compound 0.0316 µM, first compound 0.00316 µM): 98.9%
viability, T/C (second compound 0.0316 µM, first compound 0.01 µM): 102%
viability, T/C [7]: 7.92%
viability, T/C [8]: 5.24%
viability, T/C [9]: 5.93%
viability, T/C [10]: 6.36%
viability, T/C (second compound 0.1 µM, first compound 0.00316 µM): 119%
viability, T/C (second compound 0.1 µM, first compound 0.01 µM): 85.9%
viability, T/C [11]: 7.72%
viability, T/C [12]: 5.87%
viability, T/C [13]: 5.86%
viability, T/C [14]: 5.63%
viability, T/C (second compound 0.316 µM, first compound 0.00316 µM): 102%
viability, T/C (second compound 0.316 µM, first compound 0.01 µM): 92.7%
viability, T/C [15]: 7.04%
viability, T/C [16]: 5.27%
viability, T/C [17]: 5.95%
viability, T/C [18]: 6.35%
viability, T/C (second compound 1 µM, first compound 0.00316 µM): 102%
viability, T/C (second compound 1 µM, first compound 0.01 µM): 88.8%
viability, T/C [19]: 9.52%
viability, T/C [20]: 5.65%
viability, T/C [21]: 6.02%
viability, T/C [22]: 6.24%
viability, T/C (second compound 3.16 µM, first compound 0.00316 µM): 106%
viability, T/C (second compound 3.16 µM, first compound 0.01 µM): 89%
viability, T/C [23]: 8.02%
viability, T/C [24]: 4.94%
viability, T/C [25]: 5.19%
viability, T/C [26]: 5.82%
viability, T/C (second compound 10 µM, first compound 0.00316 µM): 101%
viability, T/C (second compound 10 µM, first compound 0.01 µM): 79.4%
viability, T/C [27]: 8.95%
viability, T/C [28]: 5.43%
viability, T/C [29]: 6.72%
viability, T/C [30]: 5.24%

pIC50 [1]: 5.21
pIC50 [2]: 5.28
pIC50 [3]: 5.10
pIC50 [4]: 5.24
pIC50 [5]: 5.22
pIC50 [6]: 5.52
Structure (SMILES): CC(C)NCC(C(=O)N1CCN(c2ncnc3c2C(C)CC3O)CC1)c1ccc(Cl)cc1 (stereo not given) + C#Cc1c(F)ccc2cc(O)cc(-c3ncc4c(N5CC6CCC(C5)N6)nc(OCC56CCCN5CC(F)C6)nc4c3F)c12
viability, T/C [7]: 101%
viability, T/C [8]: 95.4%
viability, T/C [9]: 100%
viability, T/C [10]: 86.5%
viability, T/C (second compound 0.0316 µM, first compound 3.16 µM): 58.4%
viability, T/C (second compound 0.0316 µM, first compound 10 µM): 44%
viability, T/C [11]: 90%
viability, T/C [12]: 103%
viability, T/C [13]: 87.7%
viability, T/C [14]: 96.6%
viability, T/C (second compound 0.1 µM, first compound 3.16 µM): 58.8%
viability, T/C (second compound 0.1 µM, first compound 10 µM): 39%
viability, T/C [15]: 105%
viability, T/C [16]: 103%
viability, T/C [17]: 78.9%
viability, T/C [18]: 92.4%
viability, T/C (second compound 0.316 µM, first compound 3.16 µM): 62%
viability, T/C (second compound 0.316 µM, first compound 10 µM): 45.5%
viability, T/C [19]: 104%
viability, T/C [20]: 103%
viability, T/C [21]: 87.6%
viability, T/C [22]: 95.3%
viability, T/C (second compound 1 µM, first compound 3.16 µM): 55.4%
viability, T/C (second compound 1 µM, first compound 10 µM): 45.1%
viability, T/C [23]: 105%
viability, T/C [24]: 102%
viability, T/C [25]: 99.4%
viability, T/C [26]: 91.1%
viability, T/C (second compound 3.16 µM, first compound 3.16 µM): 63.6%
viability, T/C (second compound 3.16 µM, first compound 10 µM): 39.4%
viability, T/C [27]: 98%
viability, T/C [28]: 93.3%
viability, T/C [29]: 89%
viability, T/C [30]: 94.1%
viability, T/C (second compound 10 µM, first compound 3.16 µM): 48%
viability, T/C (second compound 10 µM, first compound 10 µM): 32.8%
